{
  "source": "patent US6706663B2",
  "about": "“Herbicidal 3-heterocyclic substituted benzisothiazole and benzisoxazole compounds” (Wyeth, priority 2000, dated 2004)",
  "key": {"[1]": {"tested_on": "CHEAL (Chenopodium album)", "test": "Preemergence herbicidal evaluation", "assay_type": "in vivo, L.", "conditions": "preemergence, rated 4-5 weeks after treatment", "procedure,_shortened": "(§1)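 Seeds planted in potting soil cups and sprayed preemergence with aqueous acetone compound solution. Greenhouse-grown; rated 4–5 weeks after treatment on a 0-9 visual scale (stand, vigor, malformation, size, chlorosis, appearance) versus control.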"}, "[2]": {"tested_on": "AMBEL (Ambrosia artemisifolia)", "test": "Preemergence herbicidal evaluation", "assay_type": "in vivo, L.", "conditions": "preemergence, rated 4-5 weeks after treatment", "procedure,_shortened": "as §1"}, "[3]": {"tested_on": "CASOB (Cassia obtusifolia)", "test": "Preemergence herbicidal evaluation", "assay_type": "in vivo, L.", "conditions": "preemergence, rated 4-5 weeks after treatment", "procedure,_shortened": "as §1"}, "[4]": {"tested_on": "TRZAWR (Wheat, Winter, cv Riband)", "test": "Postemergence herbicidal evaluation", "assay_type": "in vivo, Triticum aestivum", "conditions": "postemergence", "procedure,_shortened": "(§2)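 Seedlings grown about two weeks in flats, sprayed, then kept under standard greenhouse care. Rated visually 4–5 weeks after treatment on a 0–9 scale (stand, vigour, malformation, size, chlorosis, overall appearance) relative to untreated control; repeat tests averaged.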"}, "[5]": {"tested_on": "CYPIR (Cyperus iria)", "test": "Flooded paddy, preemergence weed control", "assay_type": "in vivo", "conditions": "rated 3-4 weeks after treatment, 0-9 rating scale", "procedure,_shortened": "(§3)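 Plants were established from seed or propagating organs in flooded silt loam, with the water surface held 1.5 to 3 cm above the soil for the entire experiment. Injury was assessed visually against a control and given a 0-9 score.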"}, "[6]": {"tested_on": "ECHCG (Echinochloa crus-galli)", "test": "Preemergence herbicidal evaluation", "assay_type": "in vivo, (L.) Beau", "conditions": "preemergence, rated 4-5 weeks after treatment", "procedure,_shortened": "as §1"}, "[7]": {"tested_on": "SETVI (Setaria viridis)", "test": "Preemergence herbicidal evaluation", "assay_type": "in vivo, (L.) Beau", "conditions": "preemergence, rated 4-5 weeks after treatment", "procedure,_shortened": "as §1"}, "[8]": {"tested_on": "ABUTH (Abutilon theophrasti)", "test": "Postemergence herbicidal evaluation", "assay_type": "in vivo, Medic.", "conditions": "postemergence", "procedure,_shortened": "as §2"}, "[9]": {"tested_on": "ORYSAT (Rice, Tebonnet)", "test": "Preemergence herbicidal evaluation", "assay_type": "in vivo, Oryza sativa, (L.) Tebonnet", "conditions": "preemergence, rated 4-5 weeks after treatment"}, "[10]": {"tested_on": "CHEAL (Chenopodium album)", "test": "Postemergence herbicidal evaluation", "assay_type": "in vivo, L.", "conditions": "postemergence", "procedure,_shortened": "as §2"}, "[11]": {"tested_on": "AMBEL (Ambrosia artemisifolia)", "test": "Postemergence herbicidal evaluation", "assay_type": "in vivo, L.", "conditions": "postemergence", "procedure,_shortened": "as §2"}, "[12]": {"tested_on": "CASOB (Cassia obtusifolia)", "test": "Postemergence herbicidal evaluation", "assay_type": "in vivo, L.", "conditions": "postemergence", "procedure,_shortened": "as §2"}, "[13]": {"tested_on": "SAGPY (Sagittaria pygmaea)", "test": "Flooded paddy, preemergence weed control", "assay_type": "in vivo, L.", "conditions": "rated 3-4 weeks after treatment, 0-9 rating scale", "procedure,_shortened": "as §3"}, "[14]": {"tested_on": "IPOHE (Ipomoea hederacea)", "test": "Postemergence herbicidal evaluation", "assay_type": "in vivo, (L.) Jacq.", "conditions": "postemergence", "procedure,_shortened": "as §2"}, "[15]": {"tested_on": "GALAP (Galium aparine)", "test": "Preemergence herbicidal evaluation", "assay_type": "in vivo", "conditions": "preemergence, rated 4-5 weeks after treatment", "procedure,_shortened": "as §1"}, "[16]": {"tested_on": "ORYSAT (Rice, Tebonnet)", "test": "Postemergence herbicidal evaluation", "assay_type": "in vivo, Oryza sativa, (L.) Tebonnet", "conditions": "postemergence", "procedure,_shortened": "as §2"}, "[17]": {"tested_on": "MOOVA (Monochoria vaginalis)", "test": "Flooded paddy, preemergence weed control", "assay_type": "in vivo, Presl.", "conditions": "rated 3-4 weeks after treatment, 0-9 rating scale", "procedure,_shortened": "as §3"}, "[18]": {"tested_on": "SETVI (Setaria viridis)", "test": "Postemergence herbicidal evaluation", "assay_type": "in vivo, (L.) Beau", "conditions": "postemergence", "procedure,_shortened": "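Ratings use a 0-9 visual scale covering stand, vigor, malformation, size, chlorosis and appearance versus a control, scored 4-5 weeks post-spray. Roughly two-week-old seedlings received about 0.0040-1.000 kg/ha active, applied in 50/50 acetone/water with 0.5% TWEEN 20. Multiple tests per compound were averaged.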"}, "[19]": {"tested_on": "GALAP (Galium aparine)", "test": "Postemergence herbicidal evaluation", "assay_type": "in vivo", "conditions": "postemergence", "procedure,_shortened": "as §2"}},
  "data": [
    {"smiles": "Cn1c(C(F)(F)F)cc(=O)n(-c2ccc3snc(C4OCC(CS(C)(=O)=O)O4)c3c2)c1=O", "note": "(single isomer, unassigned) [Compound 86, 1-methyl-3-[3-[4-[(methylsulfonyl)methyl]-1,3-dioxolan-2-yl]-1,2-benzisothiazol-5-yl]-6-(trifluoromethyl)uracil]", "values": [
      {"measurement": "Preemergence herbicidal rating CHEAL", "setting": "[1]; rate 0.0620 kg/ha", "result": 9.0},
      {"measurement": "Preemergence herbicidal rating CHEAL", "setting": "[1]; rate 0.1250 kg/ha", "result": 9.0},
      {"measurement": "Preemergence herbicidal rating CHEAL", "setting": "[1]; rate 0.2500 kg/ha", "result": 9.0},
      {"measurement": "Preemergence herbicidal rating AMBEL", "setting": "[2]; rate 0.0620 kg/ha", "result": 9.0},
      {"measurement": "Preemergence herbicidal rating AMBEL", "setting": "[2]; rate 0.1250 kg/ha", "result": 9.0},
      {"measurement": "Preemergence herbicidal rating AMBEL", "setting": "[2]; rate 0.2500 kg/ha", "result": 9.0},
      {"measurement": "Preemergence herbicidal rating CASOB", "setting": "[3]; rate 0.0620 kg/ha", "result": 4.0},
      {"measurement": "Preemergence herbicidal rating CASOB", "setting": "[3]; rate 0.1250 kg/ha", "result": 9.0},
      {"measurement": "Preemergence herbicidal rating CASOB", "setting": "[3]; rate 0.2500 kg/ha", "result": 9.0},
      {"measurement": "TRZAWR herbicidal rating", "setting": "[4]; rate 0.0320 kg/ha", "result": 2.5},
      {"measurement": "TRZAWR herbicidal rating", "setting": "[4]; rate 0.0620 kg/ha", "result": 3.0},
      {"measurement": "CYPIR herbicidal rating", "setting": "[5]; rate 0.0320 kg/ha", "result": 0.0},
      {"measurement": "CYPIR herbicidal rating", "setting": "[5]; rate 0.1250 kg/ha", "result": 0.0},
      {"measurement": "Preemergence herbicidal rating ECHCG", "setting": "[6]; rate 0.0620 kg/ha", "result": 7.5},
      {"measurement": "Preemergence herbicidal rating ECHCG", "setting": "[6]; rate 0.1250 kg/ha", "result": 9.0},
      {"measurement": "Preemergence herbicidal rating ECHCG", "setting": "[6]; rate 0.2500 kg/ha", "result": 9.0},
      {"measurement": "Preemergence herbicidal rating SETVI", "setting": "[7]; rate 0.0620 kg/ha", "result": 7.5},
      {"measurement": "Preemergence herbicidal rating SETVI", "setting": "[7]; rate 0.1250 kg/ha", "result": 9.0},
      {"measurement": "Preemergence herbicidal rating SETVI", "setting": "[7]; rate 0.2500 kg/ha", "result": 9.0},
      {"measurement": "ABUTH herbicidal rating", "setting": "[8]; rate 0.0320 kg/ha", "result": 9.0},
      {"measurement": "ABUTH herbicidal rating", "setting": "[8]; rate 0.0620 kg/ha", "result": 9.0},
      {"measurement": "Preemergence herbicidal rating ORYSAT", "setting": "[9]; rate 0.0620 kg/ha", "result": 5.0},
      {"measurement": "Preemergence herbicidal rating ORYSAT", "setting": "[9]; rate 0.1250 kg/ha", "result": 7.0},
      {"measurement": "Preemergence herbicidal rating ORYSAT", "setting": "[9]; rate 0.2500 kg/ha", "result": 9.0},
      {"measurement": "CHEAL herbicidal rating", "setting": "[10]; rate 0.0320 kg/ha", "result": 9.0},
      {"measurement": "CHEAL herbicidal rating", "setting": "[10]; rate 0.0620 kg/ha", "result": 9.0},
      {"measurement": "AMBEL herbicidal rating", "setting": "[11]; rate 0.0320 kg/ha", "result": 9.0},
      {"measurement": "AMBEL herbicidal rating", "setting": "[11]; rate 0.0620 kg/ha", "result": 9.0},
      {"measurement": "CASOB herbicidal rating", "setting": "[12]; rate 0.0320 kg/ha", "result": 7.0},
      {"measurement": "CASOB herbicidal rating", "setting": "[12]; rate 0.0620 kg/ha", "result": 9.0},
      {"measurement": "SAGPY herbicidal rating", "setting": "[13]; rate 0.0320 kg/ha", "result": 0.0},
      {"measurement": "SAGPY herbicidal rating", "setting": "[13]; rate 0.1250 kg/ha", "result": 0.0},
      {"measurement": "IPOHE herbicidal rating", "setting": "[14]; rate 0.0320 kg/ha", "result": 9.0},
      {"measurement": "IPOHE herbicidal rating", "setting": "[14]; rate 0.0620 kg/ha", "result": 9.0},
      {"measurement": "Preemergence herbicidal rating GALAP", "setting": "[15]; rate 0.0620 kg/ha", "result": 3.0},
      {"measurement": "Preemergence herbicidal rating GALAP", "setting": "[15]; rate 0.1250 kg/ha", "result": 4.0},
      {"measurement": "Preemergence herbicidal rating GALAP", "setting": "[15]; rate 0.2500 kg/ha", "result": 9.0},
      {"measurement": "ORYSAT herbicidal rating", "setting": "[16]; rate 0.0320 kg/ha", "result": 4.0},
      {"measurement": "ORYSAT herbicidal rating", "setting": "[16]; rate 0.0620 kg/ha", "result": 5.5},
      {"measurement": "MOOVA herbicidal rating", "setting": "[17]; rate 0.0320 kg/ha", "result": 5.0},
      {"measurement": "MOOVA herbicidal rating", "setting": "[17]; rate 0.1250 kg/ha", "result": 9.0},
      {"measurement": "SETVI herbicidal rating", "setting": "[18]; rate 0.0320 kg/ha", "result": 8.0},
      {"measurement": "SETVI herbicidal rating", "setting": "[18]; rate 0.0620 kg/ha", "result": 9.0},
      {"measurement": "GALAP herbicidal rating", "setting": "[19]; rate 0.0320 kg/ha", "result": 9.0},
      {"measurement": "GALAP herbicidal rating", "setting": "[19]; rate 0.0620 kg/ha", "result": 9.0}
    ]}
  ]
}
